Assays:
Experiment in all cases: 4-nitrophenol release at […] nm, initial rates
Format in all cases: biochemical
Settings in all cases: 5 mM EPPS pH 8.0, 30 °C; ester 0–0.04 mM
[1] = system: WP_014900537.1
[2] = system: WP_089515094.1
[3] = system: WP_026140314.1

In the case of CCC(=O)Oc1ccc([N+](=O)[O-])cc1 [p-NP propionate], the Km [1] is reported as 16.9 ± 1.6 µM, the Km [2] is reported as 23.5 ± 3.5 µM and the Km [3] is reported as 14.5 ± 1.1 µM.

From paper PMC9599548, “EP-Pred: A Machine Learning Tool for Bioprospecting Promiscuous Ester Hydrolases” (Biomolecules, 2022)
